Experimental data reported in ChEMBL document CHEMBL1201862, “PubChem BioAssay data set” (2004).
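Values below derive from 48-hour exposures of cells grown in 96-well plates, with endpoints linearly interpolated between the two concentrations bracketing the appropriate inhibition level. Abbreviation: GI50, concentration required for 50% inhibition of growth.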 Active and inactive are the calls of the source. Cut-off read from the data, not from the text of the source: active = GI50 up to about 1.1 µM and inactive = higher.

Columns and labels:
Assay in all cases: NCI anticancer screen, dose series, 48 h
A498 = system: A498
NCI-H460 = system: NCI-H460
HCT-116 = system: HCT-116
OVCAR-3 = system: OVCAR-3
RPMI-8226 = system: RPMI-8226
SNB-75 = system: SNB-75
A549 = system: A549
SN12C = system: SN12C
SK-MEL-5 = system: SK-MEL-5
CCRF-CEM = system: CCRF-CEM
IGROV-1 = system: IGROV-1
LOX IMVI = system: LOX IMVI
MOLT-4 = system: MOLT-4
RXF 393 = system: RXF 393
NCI-H226 = system: NCI-H226
SW-620 = system: SW-620
HCT-15 = system: HCT-15
SR = system: SR
ACHN = system: ACHN
M14 = system: M14

Measured: GI50

C=C1C(=O)OC2C=C(C)CC3C=C(CCC=C(C)CCC12)C(=O)O3 (stereo not drawn)
inactive: A498 73.1 µM | NCI-H460 67.5 µM | HCT-116 33.1 µM | OVCAR-3 56.8 µM | RPMI-8226 44.9 µM | SNB-75 92.5 µM | A549 99.3 µM | SN12C 69 µM | SK-MEL-5 67.9 µM | CCRF-CEM 16.5 µM | IGROV-1 48 µM | LOX IMVI 32.5 µM | MOLT-4 54 µM | RXF 393 31.3 µM | NCI-H226 72.8 µM | SW-620 31 µM
56.6 µM: HCT-15

CC(C)CNC1=NCC(C)S1 (stereo not drawn)
> 100 µM: HCT-15
inactive: A498 > 100 µM | NCI-H460 > 100 µM | HCT-116 > 100 µM | OVCAR-3 > 100 µM | SR > 100 µM | RPMI-8226 > 100 µM | SNB-75 > 100 µM | A549 > 100 µM | SK-MEL-5 > 100 µM | CCRF-CEM > 100 µM | IGROV-1 > 100 µM | LOX IMVI > 100 µM | ACHN > 100 µM | M14 > 100 µM | MOLT-4 > 100 µM | RXF 393 > 100 µM | NCI-H226 > 100 µM | SW-620 > 100 µM

O=C1C(Cl)N(c2ccccc2Cl)C1c1c[nH]c2ccccc12 (stereo not drawn)
inactive: NCI-H460 > 100 µM | HCT-116 > 100 µM | OVCAR-3 > 100 µM | SR > 100 µM | RPMI-8226 > 100 µM | SNB-75 86.9 µM | A549 > 100 µM | SN12C > 100 µM | SK-MEL-5 > 100 µM | CCRF-CEM > 100 µM | IGROV-1 > 100 µM | M14 > 100 µM | MOLT-4 > 100 µM | RXF 393 > 100 µM | SW-620 > 100 µM

CNC(=O)N(C)COC
> 100 µM: HCT-15
inactive: A498 > 100 µM | NCI-H460 > 100 µM | HCT-116 > 100 µM | OVCAR-3 32.3 µM | SR > 100 µM | RPMI-8226 > 100 µM | SNB-75 > 100 µM | A549 > 100 µM | SN12C > 100 µM | CCRF-CEM > 100 µM | IGROV-1 > 100 µM | LOX IMVI > 100 µM | ACHN > 100 µM | M14 > 100 µM | MOLT-4 > 100 µM | NCI-H226 > 100 µM | SW-620 > 100 µM

Cc1cn(Cc2cn(CC3OC(n4cc(C)c(=O)[nH]c4=O)CC3O)nn2)c(=O)[nH]c1=O (stereo not drawn)
> 100 µM: HCT-15
inactive: A498 > 100 µM | HCT-116 > 100 µM | OVCAR-3 > 100 µM | RPMI-8226 > 100 µM | SNB-75 > 100 µM | A549 > 100 µM | SN12C > 100 µM | SK-MEL-5 > 100 µM | CCRF-CEM > 100 µM | ACHN > 100 µM | M14 > 100 µM | MOLT-4 > 100 µM | RXF 393 > 100 µM | NCI-H226 > 100 µM | SW-620 > 100 µM

O=C(O)CN1CCN(CC(=O)O)CCN(CC(=O)O)CC1
4.53 µM: HCT-15
inactive: A498 > 33.6 µM | NCI-H460 3.49 µM | HCT-116 3.7 µM | OVCAR-3 > 94.6 µM | SR 3.27 µM | RPMI-8226 5.36 µM | SNB-75 12.6 µM | A549 3.03 µM | SN12C > 100 µM | SK-MEL-5 2.79 µM | CCRF-CEM 3.91 µM | IGROV-1 4.85 µM | LOX IMVI > 24.1 µM | ACHN > 100 µM | M14 38.3 µM | MOLT-4 4.71 µM | RXF 393 5.64 µM | SW-620 8.47 µM

O=c1c2cccnc2oc2c(Cl)cc(-c3nnn[nH]3)cc12
inactive: A498 > 100 µM | HCT-116 > 100 µM | OVCAR-3 > 100 µM | SR > 100 µM | SNB-75 > 100 µM | A549 > 100 µM | SN12C > 100 µM | SK-MEL-5 > 100 µM | CCRF-CEM > 100 µM | IGROV-1 > 100 µM | ACHN > 100 µM | M14 > 100 µM | RXF 393 > 100 µM | NCI-H226 > 100 µM | SW-620 > 100 µM
> 100 µM: HCT-15

CC1OC(CO)(n2cnc3c(N)ncnc32)C(O)C1O (stereo not drawn)
inactive: A498 > 100 µM | NCI-H460 > 100 µM | HCT-116 > 100 µM | OVCAR-3 > 100 µM | RPMI-8226 > 100 µM | SNB-75 > 100 µM | A549 > 100 µM | SN12C > 100 µM | SK-MEL-5 > 100 µM | CCRF-CEM > 100 µM | IGROV-1 > 100 µM | LOX IMVI > 100 µM | MOLT-4 > 100 µM | RXF 393 > 100 µM | NCI-H226 > 100 µM | SW-620 > 100 µM
> 100 µM: HCT-15

C=C(/C=C/C=C(\C)CCC=C(C)C)[C@@H]1CC[C@]2([C@H](CCCO)/C(=C(/C)C=O)CC[C@]2(C)O)[C@@H]1O
inactive: NCI-H460 9.71 µM | SR 18.8 µM | SNB-75 91.6 µM | A549 13.3 µM | SN12C 17.1 µM | SK-MEL-5 22.6 µM | CCRF-CEM 15.8 µM | IGROV-1 32.2 µM | LOX IMVI 14.7 µM | ACHN > 100 µM | M14 21.7 µM | MOLT-4 7.62 µM | RXF 393 22.6 µM | NCI-H226 24 µM | SW-620 16.3 µM
19.4 µM: HCT-15
